Measurements reported in US6455466B1, “Compositions and methods for preventing leaf yellowing in plants” (The Regents of the University of California, priority 2000, dated 2002).

What was measured:
[1] = system: cut flowers of Alstroemeria (cv. diamond); test: Leaf chlorophyll content / leaf yellowing of cut Alstroemeria flowers held in treatment solution; assay type: in vivo
Procedure: The model system used in the experiments was cut stems of Alstroemeria an important cut flower whose flowers normally long outlast the relatively short-lived leaves.
In a preliminary experiment with cut flowers of Alstroemeria (cv. diamond), the flowers were placed in deionized water (DI) or a solution containing 1 μM TDZ. The chlorophyll content of the leaves was measured as described by Lichenhaler, Methods in Enzymology […] (1987). […] By 20 days, there was no detectable chlorophyll in the leaves of the control flowers (see, FIG. 1).

[2] = system: plants; details: cited from earlier work

O=C(Nc1ccccc1)Nc1cnns1 [TDZ, 1-phenyl-3-(1,2,3-thiadiazol-5-yl)urea]
chlorophyll content of the leaves versus flowers held in deionized water ([1]; 1 μM TDZ solution, by 10 days): significantly higher than the concentration in leaves of flowers held in DI
effectiveness of 24 hour pulse pre-treatment ([1]; 24 hour pulse pre-treatment with 10 μM TDZ compared with continuous 1 μM TDZ): as effective as continuous treatment with 1 μM TDZ
chlorophyll content of the leaves ([1]; cut Alstroemeria flowers placed in solution containing 1 μM TDZ, throughout the experiment (FIG. 1)): remained high throughout the experiment
effectiveness compared with BAP or GA3 ([1]; subsequent experiments, cut Alstroemeria flowers): much more effective than BAP or GA3
metabolism by plants [2]: plants do not metabolize it
